Source: patent publication US11174223B2, “Compositions, methods, and systems for the synthesis and use of imaging agents” (Lantheus Medical Imaging, Inc., priority 2010, dated 2021)

Experiments:
[1] = Dosimetry in non-human primates to estimate human radiation dosimetry; format: in vivo, cynomolgus monkeys
Experimental: Dosimetry in non-human primates of imaging agent-1 was examined. Imaging agent-1, which is labeled with ^18F, is a novel norepinephrine transporter (NET) ligand and was a useful radiotracer for mapping the cardiac nerve terminal in vivo using positron emission tomography. A study was performed in four non-human primates to estimate human radiation dosimetry.
In this study two male and two female cynomolgus monkeys were imaged using a Concord Focus 220 MicroPET scanner for whole body ^18F distribution following 4 to 5 mCi (0.65 to 1.6 μg) single intravenous injection of imaging agent-1. Under isoflurane anesthesia, images of the animals from head to lower abdomen were acquired in 5 segments over four and half hours following injection. Radioactivity in identifiable organs and the remainder of the body was determined as a function of time using region-of-interest analysis. The total number of disintegrations per unit injected dose was determined by normalizing by the injected radioactivity and integrating over time the data for radioactivity versus time. Using the OLINDA/EXM software (Organ Level Internal Dose Assessment/EXponential Modeling Software, published by Vanderbilt University), the normalized number of ^18F disintegrations for each organ was combined with the energy released by each disintegration, and using the MIRD schema, estimates were made of the fraction of the total released energy that was retained in each source organ and the contribution from each source organ to the energy deposited in surrounding target organs for an adult human. Dividing the total fractional energy deposited in each organ by the corresponding organ mass yielded the radiation dose for that organ per unit (mCi or MBq) injected dose.

[2] = tested on: norepinephrine transporter (NET), uptake 1; assay: Heart uptake in rats after uptake 1 blockade (desipramine) or 6-hydroxydopamine sympathetic denervation; format: in vivo; details: 60 minutes post injection
Experimental: Desipramine, a selective uptake 1 inhibitor, was used to block cardiac uptake 1 in rats (10 mg/kg, ip), rabbits (1 mg/kg iv), and NHPs (0.5 mg/kg, iv). 6-hydroxydopamine, a neurotoxin, was injected to induce sympathetic denervation in rats (100 mg/kg ip for 7 days) and rabbits (25 mg/kg iv on day 1, 2, 7, and 8). Imaging agent-1 heart uptake in comparison with MIBG was assessed by tissue sampling at 60 minutes post imaging agent injection. Imaging was also performed with (2-tert-butyl-4-chloro-5-[4-(2-[^18F]fluoroethoxymethyl)-benzyloxy]-2H-pyridazin-3-1.

[3] = Cardiac PET imaging in rabbit model of regional cardiac sympathetic denervation (RCSD) and re-innervation; format: in vivo, rabbits
Experimental: Rabbit models of RCSD were developed by applying phenol directly on the surface of the left ventricular wall during a sternotomy. Two and twelve weeks following the procedure, imaging agent-1 cardiac PET imaging (˜1.5 mCi, iv) were performed in these rabbits. The myocardial area with radioactivity ≥50% maximum was quantified as innervated region for comparison. To evaluate susceptibility of arrhythmia in rabbits, dofetilide (10 and 40 μg/kg iv, a delayed IKr inhibitor) induced changes were assessed by measuring ECG including heart rate (HR), QTc interval (corrected by Fridericia method), and frequency of arrhythmia.

[4] = Regional myocardial radioactivity concentration by dynamic PET in normal subjects; format: in vivo, human
Experimental: A human study was performed that determined the quantification of normal pattern of regional myocardial radioactivity concentration of imaging agent-1.
Normal subjects (n=6) were injected with ˜220 MBq of imaging agent-1 intravenously, and dynamic PET images were acquired over 80 min without patient movement. Attenuation corrected images were re-oriented into standard cardiac specific axes, and the maximal regional myocardial uptake was quantified on a sector-by-sector basis using WLCQ software. […] Activity was expressed as Bq/ml.

[5] = Tissue biodistribution by tissue sampling in rabbits; format: in vivo
Experimental: Imaging agent-1 was designed as a substrate for the norepinephrine transporter (NET) to image the cardiac sympathetic nervous system. […] These values were similar to that of MIBG (2.12±0.26 μM and 4.76±0.78 pmol/min/million cells). In animals, tissue biodistribution of imaging agent-1 was assessed by tissue sampling at 15- and 60-minute following administration. Heart uptake was 2.36±0.16 and 2.17±0.12% injected dose per g tissue (% ID/g) in rats and 0.25±0.03 and 0.28±0.03% ID/g in rabbits. In rabbits, desipramine (1 mg/kg) inhibited heart uptake of imaging agent-1 by 68% and ^123I-MIBG uptake by 55% at 1 hour post dose.

NET = NET (Homo sapiens, UniProt P23975); assay: Competition binding assay in cell membranes over-expressing human NET; design: expressed in transfected cells
Sequence of NET (P23975 whole entry): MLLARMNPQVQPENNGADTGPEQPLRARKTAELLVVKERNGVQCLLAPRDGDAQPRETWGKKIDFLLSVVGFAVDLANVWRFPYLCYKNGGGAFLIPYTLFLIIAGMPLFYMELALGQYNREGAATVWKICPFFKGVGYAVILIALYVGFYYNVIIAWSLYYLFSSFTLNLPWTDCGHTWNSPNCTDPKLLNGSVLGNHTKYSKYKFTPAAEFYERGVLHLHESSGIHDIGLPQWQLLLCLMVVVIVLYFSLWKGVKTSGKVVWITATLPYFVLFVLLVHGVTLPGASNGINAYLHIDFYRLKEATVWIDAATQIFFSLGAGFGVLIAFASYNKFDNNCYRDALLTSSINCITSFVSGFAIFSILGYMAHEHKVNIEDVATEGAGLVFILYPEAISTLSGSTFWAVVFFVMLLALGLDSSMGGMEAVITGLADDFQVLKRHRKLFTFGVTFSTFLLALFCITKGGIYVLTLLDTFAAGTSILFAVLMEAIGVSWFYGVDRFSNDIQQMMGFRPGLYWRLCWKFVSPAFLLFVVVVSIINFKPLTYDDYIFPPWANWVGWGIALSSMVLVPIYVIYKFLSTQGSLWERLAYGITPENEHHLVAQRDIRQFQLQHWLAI
Experimental: Imaging agent-1 was designed as a substrate for the norepinephrine transporter (NET) to image the cardiac sympathetic nervous system. […] In animals, tissue biodistribution of imaging agent-1 was assessed by tissue sampling at 15- and 60-minute following administration.
The affinity (Ki) was determined in a competition binding assay by incubating ^19F-imaging agent-1, a cold analog of imaging agent-1, or NE with ^3H-desmethylimipramine in cell membrane overexpressing human NET. […] In SK—NSH cells, the uptake kinetics (Km and Vmax) were evaluated by measuring NET mediated uptake of imaging agent-1 or NE at various concentrations. Imaging agent-1 cardiac image quality was evaluated by PET imaging (˜1.5 mCi, i.v.) in rabbits in the presence and absence of desipramine (1 mg/kg).

[6] = estimated from cynomolgus monkey PET

Maximum administered dose that does not exceed 10 mSv effective dose ([1]; based on average values): 14 mCi | Maximum dose that may be administered to a human without exceeding 50 mSv (5 rem) to the urinary bladder ([1]; based on average values): 12 mCi | Mean effective dose as defined in ICRP 60 [1, 6]: 0.070±0.0059 rem/mCi | Mean whole body dose estimate [1, 6]: 0.044±0.00031 rem/mCi | Predicted human radiation dose estimate, adrenals [1, 6]: 0.14±0.027 rem/mCi | Predicted human radiation dose estimate, heart wall [1, 6]: 0.085±0.014 rem/mCi | Predicted human radiation dose estimate, kidneys [1, 6]: 0.15±0.088 rem/mCi | Predicted human radiation dose estimate, osteogenic cells [1, 6]: 0.084±0.0048 rem/mCi | Predicted human radiation dose estimate, red bone marrow [1, 6]: 0.083±0.0099 rem/mCi | Predicted human radiation dose estimate, urinary bladder wall ([1]; estimated from cynomolgus monkey PET, OLINDA/EXM): 0.41±0.089 rem/mCi | tissue uptake at 60 min ([2]; rat, heart, other: injection, rats, control group of denervation): 2.58 ± 0.76 %ID/g | Heart uptake ([2]; rats, control of uptake 1 blockade): 1.47±0.22 % ID/g | Heart uptake ([2]; rats, uptake 1 blocked (desipramine 10 mg/kg ip)): 1.41±0.07 % ID/g | Heart uptake ([2]; sympathetic denervated rats (6-hydroxydopamine)): 2.18±0.39 % ID/g | Clearance of radiotracer from blood ([4]; normal subjects n=6, ~220 MBq iv): cleared quickly from the blood | Time at which myocardial activity reached a plateau ([4]; post injection): ~60 min | Time of peak of regional and global myocardial activity ([4]; post injection): ≤ 10 min | Myocardial uptake, Apical short axis slice ([4]; ~60 min post injection): 11678±2148 Bq/ml | Myocardial uptake, Base short axis slice ([4]; ~60 min post injection): 11284±2844 Bq/ml | Myocardial uptake, Mid short axis slice ([4]; ~60 min post injection): 11898±2047 Bq/ml | Regional myocardial uptake, Anterior sector ([4]; ~60 min post injection): 11592±2474 Bq/ml | Regional myocardial uptake, Inferior sector ([4]; ~60 min post injection): 11818±1991 Bq/ml | Regional myocardial uptake, Lateral sector ([4]; ~60 min post injection): 11424±2439 Bq/ml | Regional myocardial uptake, Septal sector ([4]; ~60 min post injection): 11647±2829 Bq/ml | Heart uptake ([5]; 15-minute following administration): 0.25±0.03 % ID/g | Heart uptake ([5]; 60-minute following administration): 0.28±0.03 % ID/g | Ki (NET; Example 25, cell membranes over-expressing the human NET): 5.16 ± 0.93 µM | Ki (NET; Example 27, ^19F cold analog or NE vs ^3H-desmethylimipramine, membrane overexpressing human NET): 5.2 ± 1.1 µM
SMILES: N=C(N)NCc1ccc(OCCC[18F])c(Br)c1 [imaging agent-1, 1-{3-Bromo-4-[3-[^18F]fluoropropoxy]benzyl}guanidine]
Innervated region (myocardial area with radioactivity ≥50% maximum) ([3]; phenol RCSD rabbits, 2 weeks post surgery): 12245±905 voxels | Innervated region (myocardial area with radioactivity ≥50% maximum) ([3]; phenol RCSD rabbits, 12 weeks): 16812±503 voxels | Innervated region (myocardial area with radioactivity ≥50% maximum) ([3]; sham-denervated rabbits): 20702±2190 voxels
